{"source": "patent US20080311126A1", "about": "“Antisense Oligonucleotides Directed to Ribonucleotide Reducatase R2 and Uses Thereof in Combination Therapies for the Treatment of Cancer” (Genesense Technologies, Inc, priority 2004, published 2008)", "key": {"[1]": {"test": "Phase I single agent study of SEQ ID NO:1 in patients with solid tumours or melanoma", "assay_type": "in vivo, human"}, "[2]": {"tested_on": "DU145 human prostatic cancer cells", "test": "DU145 prostatic tumour xenograft in SCID mice", "assay_type": "in vivo", "protocol": "In both experiments, DU145 human prostatic cancer cells (1×10^7 cells in 100 μl of PBS) were subcutaneously injected into the right flank of 6-7 weeks old male SCID mice. After the size of tumour reached an approximate volume of 50 mm^3, 13 FIG. 15A) or 11 (FIG. 15B) days post tumour cell injection, SEQ ID NO:1 was administered by bolus infusion into the tail vein every other day at 10 mg/kg 15 times (FIG. 15A) or 14 times (FIG. 15B), respectively. Control animals received saline alone for the same period. Antitumour effect of SEQ ID NO:1 was further compared to that of mitoxantrone (Novantrone®) alone or in combination. Mitoxantrone was administered intravenously once at the beginning of the treatments at a dose of 2 mg/kg (FIG. 15A) or once a week for four weeks at a reduced dose of 0.8 mg/kg (FIG. 15B). All treatments were stopped at day 42 (FIG. 15A) or 38 (FIG. 15B); respectively. A day after the last treatment, tumours were excised from the animals and their weights were measured."}, "[3]": {"tested_on": "Caki-1 human renal cancer cells", "test": "Caki-1 renal tumour xenograft in SCID mice, SEQ ID NO:1 and chemotherapeutics", "assay_type": "in vivo", "protocol": "Caki-1 human renal cancer cells (1×10^7 cells in […] of PBS) were subcutanteously injected into the right flank of 6-7 weeks old female SCID mice. After the size of tumour reached an approximate volume of 200 mm^3, 7 days post tumour cell injection, SEQ ID NO:1 was administered by bolus infusion into the tail vein every other day at 10 mg/kg. Control animals received saline alone for the same period. The antitumour effect of SEQ ID NO:1 was further compared to that of two chemotherapeutic agents: 5-FU and vinblastine. 5-FU was administered intraperitoneally at days 7-13, 21-27 and 35-36 with a dose of 13 mg/kg/day, while vinblastin was administered intraperitoneally at days 7, 14, 21, 28 and 35 at a dose of 0.6 mg/kg/week. Antitumour effects of each of these compounds were further compared to those of SEQ ID NO:1 in combination with 5-FU or with vinblastin. The two chemotherapeutic agents were applied as described above, one hour after the treatments with SEQ ID NO:1 when combination treatments occurred on the same day. All treatments were stopped at day 36. A day after the last treatment, tumours were excised from the animals and their weights were measured."}, "[4]": {"tested_on": "Hela S3 human cervix epitheloid carcinoma cells", "test": "Hela S3 hydroxyurea resistant cervix carcinoma xenograft in SCID mice", "assay_type": "in vivo", "protocol": "Hela S3 human cervix epitheloid carcinoma cells (5×10^5 cells in 100 μl of PBS) were subcutaneously injected into the right flank of 6-7 weeks old female SCID mice. Hela S3 is a hydroxyurea resistant cell line. After the size of tumour reached an approximate volume of 100 mm^3, 3 days post tumour cell injection, SEQ ID NO:1 was administered by bolus infusion into the tail vein every other day at 10 mg/kg 6 times. Control animals received saline alone for the same period. Antitumour effect of SEQ ID NO:1 was further compared to that of Hydroxyurea or Cisplatin alone or in combination. Hydroxyurea was administered intraperitoneally every day at a dose of 250 mg/kg for 10 days. Cisplatin was administered intravenously once a week for three weeks at a dose of 4 mg/kg. Antitumour activities were estimated by the inhibition of tumour volume, which was measured with caliper. Each point represents mean tumour volume calculated from 10 animals per experimental group. […] As expected, treatment with Hydroxyurea during the same period was ineffective against Hydroxyurea-resistant tumour."}, "Human Lung Carcinoma": {"tested_on": "Human Lung Carcinoma", "test": "Tumour growth assay, human lung carcinoma in CD-1 Nude mice", "assay_type": "in vivo"}, "[5]": {"tested_on": "Human Colon Adenocarcinoma", "test": "Tumour growth assay, human colon adenocarcinoma in CD-1 nude mice", "assay_type": "in vivo"}, "[6]": {"tested_on": "MDA-CDDP-S4 human Cisplatin-resistant breast adenocarcinoma cells", "test": "MDA-CDDP-S4 Cisplatin-resistant breast adenocarcinoma, fat pad injection in SCID mice", "assay_type": "in vivo", "conditions": "for Tumour weight as % of saline control: MDA-CDDP-S4 (breast), Cisplatin resistance, SCID", "protocol": "MDA-CDDP-S4 human in vivo-selected Cisplatin-resistant breast adenocarcinoma cells (4×10^6 cells in 100 μl of PBS) were injected into the fat pad (inside of right leg) of 6-7 weeks old female SCID mice. After the size of tumour reached an approximate volume of 100 mm^3, 7 days post tumour cell injection, SEQ ID NO:1 was administered by bolus infusion into the tail vein every other day at 10 mg/kg 9 times. Control animals received saline alone for the same period. Antitumour effect of SEQ ID NO: 1 was further compared to that of Cisplatin or Taxol alone. Cisplatin was adminstered intravenously once a week for three weeks at a dose of 4 mg/kg. Taxol was administered intravenously once a week for three weeks at a dose of 10 mg/kg. Antitumour activities were estimated by the inhibition of tumour volume, which was measured with caliper. Each point represents mean tumour volume calculated from 10 animals per experimental group. […] As expected, treatment with Cisplatin during the same period was ineffective against Cisplatin-resistant tumour.\nMDA-CDDP-S4 human in vivo-selected Cisplatin-resistant breast adenocarcinoma cells (4×10^6 cells in 100 μl of PBS) were injected into the fat pad (inside of right leg) of 6-7 weeks old female CB-17 SCID mice. After the size of tumour reached an approximate volume of 100 mm^3, 9 days post tumour cell injection, SEQ ID NO:1 was administered by bolus infusion into the tail vein every other day at 10 mg/kg. Control animals received saline alone for the same period. Antitumour effect of SEQ ID NO:1 was further compared to that of Taxol alone and in combination. Taxol was administered i.p. once a week at a dose of 10 mg/kg. Antitumour activities were estimated by the inhibition of tumour volume FIG. 22A), which was measured with calipers. Each point represents mean tumour volume calculated from 10 animals per experimental group. Animals were sacrificed and tumour weights taken at the end of the study (FIG. 22C). […] This study was repeated with similar results (FIG. 22B)."}}, "note": "Entries after “also recorded” stand apart in the source; their conditions may differ.", "data": [{"sequence": "GGCTAAATCGCTCCACCAAG (chemistry not given here) [SEQ ID NO: 1, antisense oligonucleotide that hybridizes to the coding region of human ribonucleotide reductase R2 mRNA]", "values": [{"measurement": "dose with no evidence of toxicity", "setting": "[1]; human subjects", "result": 148.0, "unit": "mg/m^2/day"}, {"measurement": "maximum tolerated dose (MTD)", "setting": "[1]; patients with solid tumours or melanoma", "result": 222.0, "unit": "mg/m^2/day"}, {"measurement": "Tumour weight as % of saline control", "setting": "[2]; DU145 (prostatic), Mouse SCID, second of two value columns (two independent experiments)", "result": 41, "unit": "%"}, {"measurement": "antitumour effect (tumour weight)", "setting": "[2]; FIG. 15A, SEQ ID NO:1 10 mg/kg 15 times, mitoxantrone 2 mg/kg once", "result": "significant delay of tumour growth"}, {"measurement": "Tumour weight as % of saline control", "setting": "[3]; Caki (renal), Mouse CD-1", "result": 3.3, "unit": "%"}, {"measurement": "antitumour effect (tumour weight)", "setting": "[3]; SEQ ID NO:1 10 mg/kg every other day i.v., 5-FU 13 mg/kg/day i.p., vinblastin 0.6 mg/kg/week i.p.", "result": "significant delay of tumour growth; also recorded: superior to the inhibitory effects observed with each of two chemotherapeutic compounds"}, {"measurement": "Tumour weight as % of saline control", "setting": "[4]; Hela S3 (cervix), hydroxyurea resistance, SCID", "result": 24, "unit": "%"}, {"measurement": "antitumour effect (tumour volume)", "setting": "[4]; SEQ ID NO:1 10 mg/kg 6 times, Hydroxyurea 250 mg/kg i.p. 10 days, Cisplatin 4 mg/kg i.v. weekly", "result": "significant delay of tumour growth; also recorded: superior to the inhibitory effects observed with Cisplatin alone"}, {"measurement": "Inhibition of tumour size", "setting": "Human Lung Carcinoma; CD-1 Nude mice, Days 14 to 19 after tumour implantation", "result": "approximately 85% in CD-1 Nude mice"}, {"measurement": "Inhibition of tumour weight", "setting": "Human Lung Carcinoma; Human Lung Carcinoma", "result": "approximately 70%"}, {"measurement": "Inhibition of tumour size", "setting": "[5]; CD-1 nude mice, Day 18 after tumour implantation", "result": "mice by approximately 80% on Day 18"}, {"measurement": "dose dependence of decrease in tumour weight", "setting": "[5]; CD-1 nude mice, doses of 1.0 to 6.0 mg/kg", "result": "Dose-dependent decrease in tumour"}, {"measurement": "Inhibition of tumour weight", "setting": "[5]; Human Colon Adenocarcinoma", "result": "approximately 80%"}, {"measurement": "antitumour effect (tumour volume)", "setting": "[6]; Example 13.3, SEQ ID NO:1 10 mg/kg 9 times, Cisplatin 4 mg/kg, Taxol 10 mg/kg i.v. weekly for three weeks", "result": "significant reduction of tumour weight"}, {"measurement": "antitumour effect (tumour volume, tumour weight)", "setting": "[6]; Example 13.4, CB-17 SCID mice, SEQ ID NO:1 10 mg/kg every other day, Taxol 10 mg/kg i.p. weekly", "result": "significant reduction of tumour weight; also recorded: superior to the inhibitory effects observed with Taxol"}, {"measurement": "Tumour weight as % of saline control", "setting": "[6]; Taxol combination study, first of two value columns", "result": 18, "unit": "%"}, {"measurement": "Tumour weight as % of saline control", "setting": "[6]; Taxol combination study, second of two value columns", "result": 41, "unit": "%"}, {"measurement": "Tumour weight as % of saline control", "setting": "[6]; study with Taxol and Cisplatin alone", "result": 32, "unit": "%"}]}]}
